How the values were obtained:
[1] = biological target: T1, Glutathione S-transferase P (Homo sapiens, UniProt P09211); test: Inhibition against glutathione S-transferase pi using GSH (0.1-3mM), 1 mM 1-chloro-2,4-dinitrobenzene
[2] = biological target: T1, Glutathione S-transferase P; test: Inhibition constant against glutathione S-transferase pi using GSH (0.1-3mM), 1 mM 1-chloro-2,4-dinitrobenzene

T1 sequence (P09211 whole entry): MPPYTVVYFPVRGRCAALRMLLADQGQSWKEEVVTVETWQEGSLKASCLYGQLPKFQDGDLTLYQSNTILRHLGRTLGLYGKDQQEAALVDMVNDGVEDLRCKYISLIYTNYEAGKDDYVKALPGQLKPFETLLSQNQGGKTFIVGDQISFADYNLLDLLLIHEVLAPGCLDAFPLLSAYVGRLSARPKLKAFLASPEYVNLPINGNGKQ

| SMILES | IC50 [1] [µM] | Ki [2] [nM] |
| --- | --- | --- |
| NC(CCC(=O)NC(CSCCO)C(=O)NCC(=O)O)C(=O)O (stereo not drawn) | 280 | 187000 |
| NC(CCC(=O)NC(CSCC(O)c1ccccc1)C(=O)NCC(=O)O)C(=O)O (stereo not drawn) | 4.7 | 490 |
| NC(CCC(=O)NC(CSC(C(=O)O)c1ccccc1)C(=O)NCC(=O)O)C(=O)O (stereo not drawn) | 5.5 | 660 |
| NC(CCC(=O)NC(CSC(CO)c1ccccc1)C(=O)NCC(=O)O)C(=O)O (stereo not drawn) | 9 | 1110 |

From ChEMBL document CHEMBL1140414, “Molecular modeling, synthesis, and preliminary biological evaluation of glutathione-S-transferase inhibitors as potential therapeutic agents” (J Med Chem, 2005)
